Assay results from patent publication EP1463487B1, “LIPOSOMAL DELIVERY OF VITAMIN E BASED COMPOUNDS” (RESEARCH DEVELOPMENT FOUNDATION, priority 2001, dated 2003).
Entries after “also recorded” stand apart in the source; their conditions may differ.

Assays:
[1] = tested on: Poly (ADP-Ribose) Polymerase (PARP); assay: Western immunoblot detection of PARP cleavage fragment; assay type: cell-based, mouse; conditions: 48 hours
Method: Poly (ADP-Ribose) Polymerase cleavage was analyzed as an alternate method for detecting apoptosis. 66 cl.4-GFP cells were treated as described above for the DAPI assay. Following the PBS wash, cells were suspended in lysis buffer (1X PBS, 1% Nonidet P-40, 0.5% sodium deoxycholate, 0.1% sodium dodecyl sulfate (SDS), 1 µg/ml leupeptin, 1 µg/ml aprotinin, 1mM dithiothreitol (DTT), 2 mM sodium orthovanadate, 10 µg/ml phenylmethylsulfonyl fluoride (PMSF)) for 30 min at 4°C, vortexed, and supernatants collected by centrifugation at 15,000 X g for 20 min. Protein concentrations were determined using the Bio-Rad (Bradford) protein assay (Bio-Rad Laboratories, Hercules, CA), and samples (100 µg/lane) resolved on 7.5% SDS-polyacrylamide gels electrophoresed under reducing conditions.
Proteins were electroblotted onto a nitrocellulose membrane (0.2 µM pore Optitran BA-S-supported nitrocellulose; Schleicher and Schuell, Keene, NH). After transfer, membranes were blocked with blocking buffer [25 mM Tris-HCl (pH 8.0), 125 mM NaCl, 0.5% Tween-20, and 5% non-fat dry milk] for 45 min at room temperature. Immunoblotting was performed using 1 µg of primary rabbit anti-human Poly (ADP-Ribose) Polymerase antibody [PARP (H-250), Santa Cruz Biotechnology, Santa Cruz, CA], and horseradish peroxidase-conjugated goat anti-rabbit immunoglobulin was used as the secondary antibody (Jackson Immunoresearch Laboratory, West Grove, PA) at a 1:3,000 dilution. Horseradish peroxidase-labeled bands from washed blots were detected by enhanced chemiluminescence (Pierce, Rockford, IL) and autoradiography (Kodak BioMax film; Rochester, NY).

[2] = tested on: proliferation biomarker KI-67; assay: KI-67 immunohistochemistry of tumor sections (cell proliferation); assay type: in vivo, Balb/c mice; conditions: transplantable syngeneic mouse mammary cancer model, in comparison to controls
66 cl.4-GFP cells = assay: Tumor growth of 66 cl.4-GFP mammary tumor cells implanted in Balb/c mice; conditions: for mean tumor volume reduced in comparison to aerosol control: liposomal α-TEA/aerosol daily
Method: 66 cl.4-GFP cells were harvested by trypsinization, centrifuged, resuspended in McCoy's media, containing no supplements at a density of 2 X 10^5/100µl. Mice were injected in the inguinal area at a point equal distance between the 4th and 5th nipples on the right side using a 23 gauge needle.
50 mice were assigned (10 per group) to aerosol treatment, aerosol control, oral treatment, oral control, or to the no treatment group so that the average tumor volume for all groups were closely matched. […] Tumors were measured using calipers every other day, and volumes were calculated using the formula: volume (mm^3) = [width (mm)^2 X length (mm)] /2. Body weights were determined weekly.
Balb/c mice were injected with 200,000 66 cl.4 GFP cells subcutaneous in the mammary fat pad area between the 4th and 5th nipple on the right side of the body.
Mice are injected with 200,000 66cl.4 GFP murine mammary tumor cells as described on day 0. Treatments are initiated on day 9 when tumors reached 1-3 mm in size. […] Data represent the mean +/- Standard Error (SE), N = 10 mice for control and treatment groups.
Balb/c mice were injected s. c. with 2 X 10^5 66 cl.4-GFP cells in the inguinal area between the 4th and 5th nipple on the right side of the body. When tumors reached 2 x 2-4 x 4 mm (9 days after tumor injection), mice were placed into 5 groups ((Group 1: untreated control, Group 2: liposome/aerosol control, Group 3: liposomal α-TEA aerosol treatment, Group 4: peanut oil/gavage control, Group 5: α-TEA in peanut oil/gavage treatment) of 10 mice/group) such that the mean tumor volume of each group was closely matched. Daily treatments were initiated on day 9 after tumor injection.
Balb/c mice were injected with 200,000 66 cl.4 GFP cells subcutaneous in the mammary fat pad area between the 4th and 5th nipple on the right side of the body. […] Animals were treated with α-TEA in liposome, vitamin E succinate in liposome, or control liposome alone via aerosol, 7 days per week, for 21 days. Animals were given 75 mg compound via nebulization per day such that each animal received 36 µg compound per day.
The size of the tumors, 9 - 21 days after injection of 200,000 66 cl.4 GFP cells between the 4th and 5th nipple on the right side of each mouse, is determined. Treatments are initiated on day 9 after tumor inoculation. Each group consists of n=10 +/- SE. Gavage Treatment = Treatments of 5 mg of α-TEA in ethanol and peanut oil (0.1 ml volume) are administered daily starting on day 9 after tumor inoculation and continuing through day 21. Gavage Control = Mice received peanut oil and ethanol alone (0.ml volume)/daily, starting on day 9 after tumor inoculation and continuing through day 21. Data (tumor size) are depicted as the mean +/- standard error for days 9, 11, 13, 15, 17, 19, and 21.
Balb/c mice were injected with 200,000 66 cl.4 GFP cells subcutaneous in the mammary fat pad area between the 4th and 5th nipple on the right side of the body. […] Animals were treated with α-TEA in liposome, vitamin E succinate in liposome, or control liposome alone via oral gavage, 2 times per day, 7 days per week, for 21 days. Animals were given a total of 6 mg compound per day.

SMILES: Cc1c(C)c2c(c(C)c1OCC(=O)O)CC[C@@](C)(CCC[C@H](C)CCC[C@H](C)CCCC(C)C)O2 [α-TEA, 2,5,7,8-tetramethyl-(2R-(4R,8R,12-trimethyltridecyl)chroman-6-yloxy) acetic acid]
- 84 kDa cleavage fragment of PARP ([1]; 5 µg/ml): only intact PARP protein was detected
- 84 kDa cleavage fragment of PARP ([1]; 10 µg/ml): evident
- 84 kDa cleavage fragment of PARP ([1]; 20 µg/ml): evident
- mean values of the proliferation biomarker KI-67 reduced [2]: 56%
- tumor size at the inoculation site versus gavage control (66 cl.4-GFP cells; 5 mg/day/mouse α-TEA in ethanol and peanut oil by gavage): no significant differences in tumor weights; also recorded: did not differ
- Inhibition (%) Tumor Growth (66 cl.4-GFP cells; Aerosol, in nebulizer per mouse: α-TEA 5 mg/d, 9NC 2 µg/d, combination 5 mg+2µg/d): 65%
- Inhibition (%) Tumor Growth (66 cl.4-GFP cells; EtOH/P Oil, Gavage, 5 mg/d): 0%
- Inhibition (%) Tumor Growth (66 cl.4-GFP cells; Liposomal, Aerosol, 5 mg/d): 70%
- Inhibition (%) Tumor Growth (66 cl.4-GFP cells; Liposomal, Gavage, 3 mg/2Xd): 70%
- size of tumors less than aerosol only control group (66 cl.4-GFP cells; aerosol α-TEA liposomes 5 mg/mouse daily, sacrifice day 25, 16 days after treatment initiation): 61%
- mean tumor volume reduced in comparison to aerosol control (66 cl.4-GFP cells; day 9 of treatment): 23%
- mean tumor volume reduced in comparison to aerosol control (66 cl.4-GFP cells; day 11 of treatment): 41%
- mean tumor volume reduced in comparison to aerosol control (66 cl.4-GFP cells; day 13 of treatment): 50%
- mean tumor volume reduced in comparison to aerosol control (66 cl.4-GFP cells; day 15 of treatment): 67%
- mean tumor volume reduced in comparison to aerosol control (66 cl.4-GFP cells; day 17 of treatment): 61%
- reduced tumor growth (66 cl.4-GFP cells; liposome aerosol, 36 µg compound per day, 21 days, day 15): 64%
- reduced tumor growth (66 cl.4-GFP cells; liposome aerosol, 36 µg compound per day, 21 days, day 17): 76%
- reduced tumor growth (66 cl.4-GFP cells; liposome aerosol, 36 µg compound per day, 21 days, day 19): 69%
- reduced tumor growth (66 cl.4-GFP cells; liposome aerosol, 36 µg compound per day, 21 days, day 21): 67%
- reduced tumor growth (66 cl.4-GFP cells; liposome gavage, 6 mg compound per day, 2 times per day, day 15): 85%
- reduced tumor growth (66 cl.4-GFP cells; liposome gavage, 6 mg compound per day, 2 times per day, day 17): 85%
- reduced tumor growth (66 cl.4-GFP cells; liposome gavage, 6 mg compound per day, 2 times per day, day 19): 80%
- reduced tumor growth (66 cl.4-GFP cells; liposome gavage, 6 mg compound per day, 2 times per day, day 21): 70%
